Tests used:
Assay in all cases: relative viability (nuclei count vs DMSO), 5 days (fraction); higher = more cells survive
[1] = compound: C1=CC(=CC=C1NC(=S)NNC2=C(C=C(C=C2[N+](=O)[O-])C(F)(F)F)[N+](=O)[O-])F [Kobe2602] + Cc1nc(NC(=O)N2CCC[C@H]2C(N)=O)sc1-c1ccnc(C(C)(C)C(F)(F)F)c1 [Alpelisib] (partner 2 µM)
In short: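 Medians of duplicate plates are given as relative viability. That measure is the nuclei count in treated wells divided by the count in vehicle wells. Counts were taken on 4× images of lung cancer cell lines in 1536-well plates, 5 days after pin-tool dosing the day after seeding with one drug alone or a fixed anchor-drug dose plus five library-drug doses (not always all listed) in √10 steps.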

[2] = compound: O[C@@H](COc1cccc2ncccc12)CN1CCN([C@@H]2c3ccccc3[C@@H]3[C@H](c4ccccc42)C3(F)F)CC1 [Zosuquidar]
In short: (§1)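 Lung cancer cell lines received five library-drug doses (not always all listed) spaced by √10, pinned on vehicle-anchored 1536-well plates after an overnight stay at 37 °C. Five days later, with no medium change, nuclei were Hoechst-stained, imaged at 4× and counted with MetaXpress. Viability is treated-well nuclei relative to vehicle-well nuclei, as a median across plates. Passing plates had control CV below 25% and at least one doubling.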

[3] = compound: C1=CC(=CC=C1NC(=S)NNC2=C(C=C(C=C2[N+](=O)[O-])C(F)(F)F)[N+](=O)[O-])F [Kobe2602]
In short: as §1

[4] = compound: COc1cc2nccc(Oc3ccc(NC(=O)C4(C(=O)Nc5ccc(F)cc5)CC4)cc3)c2cc1OC [Cabozantinib]
In short: as §1

| Cell Line | relative viability ([1]; first compound 0.2 µM) | relative viability ([1]; first compound 0.6325 µM) | relative viability ([1]; first compound 2 µM) | relative viability ([1]; first compound 6.325 µM) | relative viability ([1]; first compound 20 µM) | relative viability ([2]; 0.01 µM) | relative viability ([2]; 0.03162 µM) | relative viability ([2]; 0.1 µM) | relative viability ([2]; 0.3162 µM) | relative viability ([2]; 1 µM) | relative viability ([3]; 0.2 µM) | relative viability ([3]; 0.6325 µM) | relative viability ([3]; 2 µM) | relative viability ([3]; 6.325 µM) | relative viability ([3]; 20 µM) | relative viability ([4]; 0.02 µM) | relative viability ([4]; 0.06325 µM) | relative viability ([4]; 0.2 µM) | relative viability ([4]; 0.6325 µM) | relative viability ([4]; 2 µM) |
| --- | --- | --- | --- | --- | --- | --- | --- | --- | --- | --- | --- | --- | --- | --- | --- | --- | --- | --- | --- | --- |
| SK-MES-1 | 0.817 | 0.955 | 0.844 | 0.79 | 0.877 | 0.998 | 0.993 | 0.912 | 1.02 | 1.04 | 0.96 | 1.05 | 0.964 | 0.97 | 0.855 | 0.981 | 1.14 | 0.986 | 1.03 | 0.953 |
| HCC-366 | 0.364 | 0.493 | 0.309 | 0.429 | 0.496 | 1 | 1.04 | 0.977 | 1.04 | 0.986 | 0.985 | 0.982 | 1.02 | 1.02 | 1.07 | 1.06 | 1.02 | 0.99 | 0.967 | 0.995 |
| NCI-H3122 | 0.807 | 0.753 | 0.764 | 0.784 | 0.885 | 0.984 | 0.952 | 0.919 | 1.07 | 0.987 | 1.01 | 0.971 | 1.01 | 0.985 | 1.04 | 0.995 | 1.05 | 1.03 | 0.983 | 0.998 |
| COR-L 105 | 0.771 | 1.08 | 0.78 | 0.973 | 0.938 | 0.955 | 0.841 | 0.796 | 1.04 | 0.905 | 0.899 | 1.06 | 0.858 | 0.985 | 0.914 | 0.844 | 0.991 | – | 0.888 | 0.857 |
| 201T | 1.09 | 1.01 | 0.968 | 1.11 | 1.09 | 0.947 | 0.979 | 0.883 | 0.985 | 0.982 | 1 | 1.01 | 0.946 | 0.997 | 0.963 | 0.868 | 1.1 | 0.967 | 1 | 0.965 |
| NCI-H2228 | 0.724 | 0.712 | 0.747 | 0.713 | 0.776 | 0.901 | 0.979 | 1.02 | 0.952 | 1.03 | 1.02 | 1.11 | 1.01 | 0.944 | 1.11 | 1.05 | 1.11 | 0.938 | 0.879 | 0.871 |
| LC-2-ad | 0.846 | 0.866 | 0.916 | 0.883 | 1.01 | 0.919 | 1.07 | 0.923 | 1.13 | 0.995 | 0.999 | 1.02 | 0.954 | 0.951 | 1.08 | 0.838 | 1.13 | 0.946 | 0.878 | 0.704 |

From the supplement of paper PMC10307832
